This passage reports IC50 results from US9969694B2, “N-(arylalkyl)-N′-pyrazolyl-urea, thiourea, guanidine and cyanoguanidine compounds as TrkA kinase inhibitors” (Array BioPharma Inc., priority 2012, dated 2018).

Usually IC50 stands for the concentration that gives 50% inhibition.

The target in the test is T1, His-tagged recombinant human TrkA (Homo sapiens, UniProt P04629).
T1 construct: 6HIS tagged cytoplasmic domain from Invitrogen, Catalog No. PV3144; purchased Invitrogen PV3144
T1 sequence (P04629 440-796 limits assumed): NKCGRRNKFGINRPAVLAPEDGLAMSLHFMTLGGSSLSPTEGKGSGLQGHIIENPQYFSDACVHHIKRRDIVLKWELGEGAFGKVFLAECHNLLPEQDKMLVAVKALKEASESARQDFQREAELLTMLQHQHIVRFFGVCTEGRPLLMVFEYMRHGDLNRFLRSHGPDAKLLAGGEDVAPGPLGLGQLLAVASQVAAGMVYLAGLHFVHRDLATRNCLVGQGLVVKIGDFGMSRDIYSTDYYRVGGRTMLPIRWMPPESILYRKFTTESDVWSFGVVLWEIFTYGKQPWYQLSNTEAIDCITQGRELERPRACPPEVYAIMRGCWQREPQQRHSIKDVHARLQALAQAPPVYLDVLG
The test is described as follows: TrkA Kinase Binding Assay (LanthaScreen Eu). The settings on record: averaged IC50; TR-FRET binding, 60 min, 22° C.; read-out: TrkA Enzyme IC50. In outline: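 TR-FRET tracer displacement: 5 nM His-tagged TrkA cytoplasmic domain with 4 nM Tracer 236, biotinylated anti-His and Eu-streptavidin in pH 7.5 MOPS buffer, 2% DMSO, 60 min at 22 °C. 665/615 nm emission ratio gave percent of control; IC50 from four-parameter fit.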
As to `COCc1ccc(OC(F)(F)F)c(CNC(=O)Nc2c(C)c(OCC3CN(C)C3)nn2-c2ccccc2)c1` [Example 75, 1-(5-(methoxymethyl)-2-(trifluoromethoxy)benzyl)-3-(4-methyl-3-((1-methylazetidin-3-yl)methoxy)-1-phenyl-1H-pyrazol-5-yl)urea], the IC50 is < 100 nM.
With `COCc1ccc(OC(F)(F)F)c(CNC(=O)Nc2c(C)c(OCC3(F)CCN(C)C3)nn2-c2ccccc2)c1` (stereo not shown) [Example 76, 1-(3-((3-fluoro-1-methylpyrrolidin-3-yl)methoxy)-4-methyl-1-phenyl-1H-pyrazol-5-yl)-3-(5-(methoxymethyl)-2-(trifluoromethoxy)benzyl)urea], the IC50 was < 100 nM.
For `COCc1ccc(OC(F)(F)F)c(CNC(=O)Nc2c(C)c(Oc3ccccc3)nn2-c2ccccc2)c1` [Example 77, 1-(5-(methoxymethyl)-2-(trifluoromethoxy)benzyl)-3-(4-methyl-3-phenoxy-1-phenyl-1H-pyrazol-5-yl)urea], the IC50 fell in the range of 100 to 1000 nM.
Next, `COCc1ccc(OC(F)(F)F)c(CNC(=O)Nc2c(C)c(OC3CCNCC3)nn2-c2ccccc2)c1` [Example 78, 1-(5-(methoxymethyl)-2-(trifluoromethoxy)benzyl)-3-(4-methyl-1-phenyl-3-(piperidin-4-yloxy)-1H-pyrazol-5-yl)urea]: < 100 nM; `COCc1ccc(OC(F)(F)F)c(CNC(=O)Nc2c(C)c(OC3CC4(CNC4)C3)nn2-c2ccccc2)c1` [Example 79, 1-(3-(2-azaspiro[3.3]heptan-6-yloxy)-4-methyl-1-phenyl-1H-pyrazol-5-yl)-3-(5-(methoxymethyl)-2-(trifluoromethoxy)benzyl)urea]: < 100 nM.
On to `COCc1ccc(OC(F)(F)F)c(CNC(=O)Nc2c(C)c(O[C@H]3CNC[C@H]3F)nn2-c2ccccc2)c1` [Example 80, 1-(3-(((3S,4R)-4-fluoropyrrolidin-3-yl)oxy)-4-methyl-1-phenyl-1H-pyrazol-5-yl)-3-(5-(methoxymethyl)-2-(trifluoromethoxy)benzyl)urea], for which the half-inhibitory concentration (IC50) was < 100 nM.
Regarding `COCc1ccc(OC(F)(F)F)c(CNC(=O)Nc2c(C)c(O[C@H]3CN(C)C[C@H]3F)nn2-c2ccccc2)c1` [Example 81, 1-(3-(((3S,4R)-4-fluoro-1-methylpyrrolidin-3-yl)oxy)-4-methyl-1-phenyl-1H-pyrazol-5-yl)-3-(5-(methoxymethyl)-2-(trifluoromethoxy)benzyl)urea], the half-maximal inhibitory concentration (IC50) was < 100 nM.
Regarding `COCc1ccc(OC(F)(F)F)c(CNC(=O)Nc2c(C)c(O[C@@H]3CCN(C)C3)nn2-c2ccccc2)c1` [Example 82, (R)-1-(5-(methoxymethyl)-2-(trifluoromethoxy)benzyl)-3-(4-methyl-3-((1-methylpyrrolidin-3-yl)oxy)-1-phenyl-1H-pyrazol-5-yl)urea], the IC50 is < 100 nM.
To `COCc1ccc(OC(F)(F)F)c(CNC(=O)Nc2c(C)c(O[C@H]3CCNC3)nn2-c2ccccc2)c1` [Example 83, (S)-1-(5-(methoxymethyl)-2-(trifluoromethoxy)benzyl)-3-(4-methyl-1-phenyl-3-(pyrrolidin-3-yloxy)-1H-pyrazol-5-yl)urea] belongs < 100 nM; to `COCc1ccc(OC(F)(F)F)c(CNC(=O)Nc2c(C)c(O[C@@H]3CCNC3)nn2-c2ccccc2)c1` [Example 84, (R)-1-(5-(methoxymethyl)-2-(trifluoromethoxy)benzyl)-3-(4-methyl-1-phenyl-3-(pyrrolidin-3-yloxy)-1H-pyrazol-5-yl)urea], < 100 nM; to `COCc1ccc(OC(F)(F)F)c(CNC(=O)Nc2c(C)c(OC3CC4(C3)CN(C)C4)nn2-c2ccccc2)c1` [Example 85, 1-(5-(methoxymethyl)-2-(trifluoromethoxy)benzyl)-3-(4-methyl-3-((2-methyl-2-azaspiro[3.3]heptan-6-yl)oxy)-1-phenyl-1H-pyrazol-5-yl)urea], < 100 nM.
In the case of `COCc1ccc(OC(F)(F)F)c(CNC(=O)Nc2c(C)c(OCC3(F)CNC3)nn2-c2ccccc2)c1` [Example 86, 1-(3-((3-fluoroazetidin-3-yl)methoxy)-4-methyl-1-phenyl-1H-pyrazol-5-yl)-3-(5-(methoxymethyl)-2-(trifluoromethoxy)benzyl)urea], the 50% inhibitory concentration (IC50) was < 100 nM.
Next, `COCc1ccc(OC(F)(F)F)c(CNC(=O)Nc2c(C)c(OC[C@@H]3CCNC[C@H]3F)nn2-c2ccccc2)c1` [Example 87, 1-(3-(((3S,4S)-3-fluoropiperidin-4-yl)methoxy)-4-methyl-1-phenyl-1H-pyrazol-5-yl)-3-(5-(methoxymethyl)-2-(trifluoromethoxy)benzyl)urea]: < 100 nM; `COCc1ccc(OC(F)(F)F)c(CNC(=O)Nc2c(C)c(OC[C@H]3CCNC[C@H]3F)nn2-c2ccccc2)c1` [Example 88, 1-(3-(((3S,4R)-3-fluoropiperidin-4-yl)methoxy)-4-methyl-1-phenyl-1H-1-pyrazol-5-yl)-3-(5-(methoxymethyl)-2-(trifluoromethoxy)benzyl)urea 2,2,2-trifluoroacetate]: < 100 nM.
To `COCc1ccc(OC(F)(F)F)c(CNC(=O)Nc2c(C)c(OC3CNC3)nn2-c2ccccc2)c1` [Example 89, 1-(3-(azetidin-3-yloxy)-4-methyl-1-phenyl-1H-pyrazol-5-yl)-3-(5-(methoxymethyl)-2-(trifluoromethoxy)benzyl)urea] belongs < 100 nM; to `COCc1ccc(OC(F)(F)F)c(CNC(=O)Nc2c(C)c(OC3CC4(CCN4)C3)nn2-c2ccccc2)c1` (stereo not shown) [Example 90, 1-(3-(1-azaspiro[3.3]heptan-6-yloxy)-4-methyl-1-phenyl-1H-pyrazol-5-yl)-3-(5-(methoxymethyl)-2-(trifluoromethoxy)benzyl)urea], < 100 nM.
`COCc1ccc(OC(F)(F)F)c(CNC(=O)Nc2c(C)c(OC[C@H]3CCN3)nn2-c2ccccc2)c1` [Example 91, (R)-1-(3-(azetidin-2-ylmethoxy)-4-methyl-1-phenyl-1H-pyrazol-5-yl)-3-(5-(methoxymethyl)-2-(trifluoromethoxy)benzyl)urea]: the IC50 was < 100 nM.
With `COCc1ccc(OC(F)(F)F)c(CNC(=O)Nc2c(C)c(OC[C@@H]3CCN3)nn2-c2ccccc2)c1` [Example 92, (S)-1-(3-(azetidin-2-ylmethoxy)-4-methyl-1-phenyl-1H-pyrazol-5-yl)-3-(5-(methoxymethyl)-2-(trifluoromethoxy)benzyl)urea], the 50% inhibitory concentration (IC50) was < 100 nM.
Regarding `COCc1ccc(OC(F)(F)F)c(CNC(=O)Nc2c(C)c(OCC3CCN(C)CC3)nn2-c2ccccc2)c1` [Example 93, 1-(5-(methoxymethyl)-2-(trifluoromethoxy)benzyl)-3-(4-methyl-3-((1-methylpiperidin-4-yl)methoxy)-1-phenyl-1H-pyrazol-5-yl)urea], the half-inhibitory concentration (IC50) is < 100 nM.
Consider `COCc1ccc(OC(F)(F)F)c(CNC(=O)Nc2c(C)c(OC3CC4(CCN4C)C3)nn2-c2ccccc2)c1` (stereo not shown) [Example 94, 1-(5-(methoxymethyl)-2-(trifluoromethoxy)benzyl)-3-(4-methyl-3-((1-methyl-1-azaspiro[3.3]heptan-6-yl)oxy)-1-phenyl-1H-pyrazol-5-yl)urea 2,2,2-trifluoroacetate], for which the IC50 is < 100 nM.
Next, `COCc1ccc(OC(F)(F)F)c(CNC(=O)Nc2c(C)c(O[C@@H]3CCNC[C@H]3F)nn2-c2ccccc2)c1` [Example 95, 1-(3-(((3R,4R)-3-fluoropiperidin-4-yl)oxy)-4-methyl-1-phenyl-1H-pyrazol-5-yl)-3-(5-(methoxymethyl)-2-(trifluoromethoxy)benzyl)urea]: < 100 nM.
As for `COCc1ccc(OC(F)(F)F)c(CNC(=O)Nc2c(C)c(OC[C@H](C)N)nn2-c2ccccc2)c1` [Example 96, (S)-1-(3-(2-aminopropoxy)-4-methyl-1-phenyl-1H-pyrazol-5-yl)-3-(5-(methoxymethyl)-2-(trifluoromethoxy)benzyl)urea], the IC50 was < 100 nM.
Next, `COCc1ccc(OC(F)(F)F)c(CNC(=O)Nc2c(C)c(OC[C@@H](C)N)nn2-c2ccccc2)c1` [Example 97, (R)-1-(3-(2-aminopropoxy)-4-methyl-1-phenyl-1H-pyrazol-5-yl)-3-(5-(methoxymethyl)-2-(trifluoromethoxy)benzyl)urea]: < 100 nM; `COCc1ccc(OC(F)(F)F)c(CNC(=O)Nc2c(C)c(O[C@@H]3CCN(C)C[C@H]3F)nn2-c2ccccc2)c1` [Example 98, 1-(3-(((3R,4R)-3-fluoro-1-methylpiperidin-4-yl)oxy)-4-methyl-1-phenyl-1H-pyrazol-5-yl)-3-(5-(methoxymethyl)-2-(trifluoromethoxy)benzyl)urea]: < 100 nM; `COCc1ccc(OC(F)(F)F)c(CNC(=O)Nc2c(C)c(O[C@@H]3CCNC[C@@H]3F)nn2-c2ccccc2)c1` [Example 99, 1-(3-(((3S,4R)-3-fluoropiperidin-4-yl)oxy)-4-methyl-1-phenyl-1H-pyrazol-5-yl)-3-(5-(methoxymethyl)-2-(trifluoromethoxy)benzyl)urea]: < 100 nM.
Next, `COCc1ccc(OC(F)(F)F)c(CNC(=O)Nc2c(C)c(O[C@H]3C[C@H](N)C3)nn2-c2ccccc2)c1` [Example 100, 1-(3-((1r,3r)-3-aminocyclobutoxy)-4-methyl-1-phenyl-1H-pyrazol-5-yl)-3-(5-(methoxymethyl)-2-(trifluoromethoxy)benzyl)urea]: < 100 nM; `COCc1ccc(OC(F)(F)F)c(CNC(=O)Nc2c(C)c(O[C@@H]3CCN(C)C[C@@H]3F)nn2-c2ccccc2)c1` [Example 101, 1-(3-(((3S,4R)-3-fluoro-1-methylpiperidin-4-yl)oxy)-4-methyl-1-phenyl-1H-pyrazol-5-yl)-3-(5-(methoxymethyl)-2-(trifluoromethoxy)benzyl)urea]: < 100 nM.
To `COCc1ccc(OC(F)(F)F)c(CNC(=O)Nc2c(C)c(OC[C@H]3COCCN3)nn2-c2ccccc2)c1` [Example 102, (R)-1-(5-(methoxymethyl)-2-(trifluoromethoxy)benzyl)-3-(4-methyl-3-(morpholin-3-ylmethoxy)-1-phenyl-1H-pyrazol-5-yl)urea] belongs < 100 nM.
